# Experimental data published in patent US20250228865A1, “COMPOUNDS FOR ENHANCING READ THROUGH OF GENES CONTAINING PREMATURE TERMINATION CODONS AND METHODS FOR MAKING AND USING THE SAME” (Sanofi US Services Inc., priority 2022, published 2025).
# pEC50: −log10 of the molar value.
# What was measured:
# [1] = tested on: recombinant human CFTR carrying the premature stop codon (PTC) mutation G542X; assay: CFTR-PTC mutant translation readthrough, Nanoluc tagged CFTR luminescence (G542X cell line); format: cell-based; conditions: in combination with G418, G542X cell line; for CFTR G542X ACTIVITY Fold 10 μM G-418: fold over 10 μM G-418; for pEC50: 16HBE cells
# In short: (§1)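 16HBE cells stably expressing Nanoluc-tagged human CFTR with G542X or R1162X, in medium with 3 μM VX-809, treated 48 h at 37 °C with compound (10-point, 2-fold, top 50 μM final) alone or with 10 μM G418. Live-cell Nanoluc luminescence normalised to a maximally effective G418 (125-250 μM).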
# [2] = tested on: recombinant human CFTR carrying the premature stop codon (PTC) mutation R1162X; assay: CFTR-PTC mutant translation readthrough, Nanoluc tagged CFTR luminescence (R1162X cell line); format: cell-based; conditions: for CFTR R1162X ACTIVITY Fold 10 μM G-418: fold over 10 μM G-418, in combination with G418; for pEC50: in combination with G418, 16HBE cells, read-out: CFTR R1162X ACTIVITY EC50
# In short: as §1
smiles,measurement,setting,value
Cc1cccc(C(F)(F)F)c1COc1cnc(N2CCC[C@@H](O)C2)nc1,CFTR G542X ACTIVITY Fold 10 μM G-418,[1],A′ (A′ = ≥10X)
same,pEC50,[1],> 6.00
same,CFTR R1162X ACTIVITY Fold 10 μM G-418,[2],A′ (A′ = ≥10X)
same,pEC50,[2],5.00 to 6.00
Cc1cccc(C(F)(F)F)c1COc1cnc(N2CCNCC2)nc1 [5-{[2-methyl-6-(trifluoromethyl)phenyl]methoxy}-2-(piperazin-1-yl)pyrimidine],CFTR G542X ACTIVITY Fold 10 μM G-418,[1],A′ (A′ = ≥10X)
same,pEC50,[1],5.00 to 6.00
same,CFTR R1162X ACTIVITY Fold 10 μM G-418,[2],A′ (A′ = ≥10X)
same,pEC50,[2],5.00 to 6.00
O=C1CNC(=O)N1c1ccc(OCc2c(Cl)cccc2C(F)(F)F)cn1,CFTR G542X ACTIVITY Fold 10 μM G-418,[1],B′ (B′ = ≥5X to <10X)
same,pEC50,[1],5.00 to 6.00
same,pEC50,[2],< 5.00
Cc1cccc(C(F)(F)F)c1COc1cnc(N2CCC(O)(c3cccnc3)CC2)nc1,CFTR G542X ACTIVITY Fold 10 μM G-418,[1],A′ (A′ = ≥10X)
same,pEC50,[1],> 6.00
same,CFTR R1162X ACTIVITY Fold 10 μM G-418,[2],A′ (A′ = ≥10X)
same,pEC50,[2],> 6.00
O=C1O[C@@H](CO)CN1c1ccc(OCc2c(Cl)cccc2C(F)(F)F)cn1,CFTR G542X ACTIVITY Fold 10 μM G-418,[1],A′ (A′ = ≥10X)
same,pEC50,[1],5.00 to 6.00
same,CFTR R1162X ACTIVITY Fold 10 μM G-418,[2],A′ (A′ = ≥10X)
same,pEC50,[2],5.00 to 6.00
CN1C(=O)CN(c2ncc(OCc3c(Cl)cccc3C(F)(F)F)cn2)CC1CO (stereo not shown),CFTR G542X ACTIVITY Fold 10 μM G-418,[1],C′ (C′ = <5X)
same,pEC50,[1],> 6.00
same,CFTR R1162X ACTIVITY Fold 10 μM G-418,[2],C′ (C′ = <5X)
same,pEC50,[2],5.00 to 6.00
"OCc1cc(-c2ncc(OCc3c(Cl)cccc3Cl)cn2)[nH]n1 [Compound 252, [5-[5-[(2,6-dichlorophenyl)methoxy]pyrimidin-2-yl]-1H-pyrazol-3-yl]methanol]",CFTR G542X ACTIVITY Fold 10 μM G-418,[1],A′ (A′ = ≥10X)
same,pEC50,[1],5.00 to 6.00
same,CFTR R1162X ACTIVITY Fold 10 μM G-418,[2],B′ (B′ = ≥5X to <10X)
same,pEC50,[2],5.00 to 6.00
OCc1nnc(-c2ccc(OCc3c(Cl)cccc3C(F)(F)F)cc2)o1,CFTR G542X ACTIVITY Fold 10 μM G-418,[1],A′ (A′ = ≥10X)
same,pEC50,[1],> 6.00
same,CFTR R1162X ACTIVITY Fold 10 μM G-418,[2],A′ (A′ = ≥10X)
same,pEC50,[2],> 6.00
Cc1cccc(C(F)(F)F)c1COc1ccc(N2C(=O)NC(C(C)C)C2=O)cc1 (stereo not shown),CFTR G542X ACTIVITY Fold 10 μM G-418,[1],A′ (A′ = ≥10X)
same,pEC50,[1],> 6.00
same,CFTR R1162X ACTIVITY Fold 10 μM G-418,[2],A′ (A′ = ≥10X)
same,pEC50,[2],5.00 to 6.00
"O=C1OC(CO)CN1c1ccc(OCc2c(Br)cccc2Br)cc1 (stereo not shown) [3-[4-[(2,6-dibromophenyl)methoxy]phenyl]-5-(hydroxymethyl)oxazolidin-2-one]",CFTR G542X ACTIVITY Fold 10 μM G-418,[1],A′ (A′ = ≥10X)
same,pEC50,[1],5.00 to 6.00
same,CFTR R1162X ACTIVITY Fold 10 μM G-418,[2],A′ (A′ = ≥10X)
same,pEC50,[2],5.00 to 6.00
OCc1ncn(-c2ccc(OCc3c(Cl)cccc3OC(F)(F)F)cc2)n1,CFTR G542X ACTIVITY Fold 10 μM G-418,[1],A′ (A′ = ≥10X)
same,pEC50,[1],5.00 to 6.00
same,CFTR R1162X ACTIVITY Fold 10 μM G-418,[2],A′ (A′ = ≥10X)
same,pEC50,[2],5.00 to 6.00
OCc1ncn(-c2ncc(OCc3c(Cl)cccc3Cl)cn2)n1,CFTR G542X ACTIVITY Fold 10 μM G-418,[1],C′ (C′ = <5X)
same,pEC50,[1],5.00 to 6.00
same,CFTR R1162X ACTIVITY Fold 10 μM G-418,[2],C′ (C′ = <5X)
same,pEC50,[2],5.00 to 6.00
O=C1OC(CO)CN1c1ncc(OC(F)(F)c2c(Cl)cccc2Cl)cn1 (stereo not shown),pEC50,[1],< 5.00
same,pEC50,[2],< 5.00
OCC1CN(c2ncc(OCc3c(F)cccc3C(F)(F)F)cn2)CCO1 (stereo not shown),CFTR G542X ACTIVITY Fold 10 μM G-418,[1],A′ (A′ = ≥10X)
same,pEC50,[1],5.00 to 6.00
same,CFTR R1162X ACTIVITY Fold 10 μM G-418,[2],A′ (A′ = ≥10X)
same,pEC50,[2],5.00 to 6.00
Cc1cccc(C(F)(F)F)c1COc1cnc(N2CCC(C(N)=O)C2)nc1 (stereo not shown),CFTR G542X ACTIVITY Fold 10 μM G-418,[1],A′ (A′ = ≥10X)
same,pEC50,[1],> 6.00
same,CFTR R1162X ACTIVITY Fold 10 μM G-418,[2],A′ (A′ = ≥10X)
same,pEC50,[2],5.00 to 6.00
"O=C1OC(CO)CN1c1ccc(OCc2c(Cl)cccc2Cl)cc1 (stereo not shown) [3-[4-[(2,6-dichlorophenyl)methoxy]phenyl]-5-(hydroxymethyl)oxazolidin-2-one]",CFTR G542X ACTIVITY Fold 10 μM G-418,[1],B′ (B′ = ≥5X to <10X)
same,pEC50,[1],5.00 to 6.00
same,CFTR R1162X ACTIVITY Fold 10 μM G-418,[2],B′ (B′ = ≥5X to <10X)
same,pEC50,[2],5.00 to 6.00
"NC(=O)CN1CCN(c2ncc(OCc3c(Cl)cccc3Cl)cn2)CC1 [2-[4-[5-[(2,6-dichlorophenyl)methoxy]pyrimidin-2-yl]piperazin-1-yl]acetamide]",CFTR G542X ACTIVITY Fold 10 μM G-418,[1],B′ (B′ = ≥5X to <10X)
same,pEC50,[1],5.00 to 6.00
same,CFTR R1162X ACTIVITY Fold 10 μM G-418,[2],B′ (B′ = ≥5X to <10X)
same,pEC50,[2],5.00 to 6.00
C[C@@H](O)[C@@H]1CN(c2ncc(OCc3c(Cl)cccc3Cl)cn2)CCO1 (racemic),CFTR G542X ACTIVITY Fold 10 μM G-418,[1],A′ (A′ = ≥10X)
same,pEC50,[1],5.00 to 6.00
same,CFTR R1162X ACTIVITY Fold 10 μM G-418,[2],A′ (A′ = ≥10X)
same,pEC50,[2],< 5.00
Cc1cccc(C(F)(F)F)c1COc1cnc(N2CC(=O)N(CO)C2=O)nc1,CFTR G542X ACTIVITY Fold 10 μM G-418,[1],A′ (A′ = ≥10X)
same,pEC50,[1],5.00 to 6.00
same,CFTR R1162X ACTIVITY Fold 10 μM G-418,[2],A′ (A′ = ≥10X)
same,pEC50,[2],5.00 to 6.00
"OCCC1CCN(c2ncc(OCc3c(Cl)cccc3Cl)cn2)CC1 [2-[1-[5-[(2,6-dichlorophenyl)methoxy]pyrimidin-2-yl]-4-piperidyl]ethanol]",CFTR G542X ACTIVITY Fold 10 μM G-418,[1],A′ (A′ = ≥10X)
same,pEC50,[1],> 6.00
same,CFTR R1162X ACTIVITY Fold 10 μM G-418,[2],B′ (B′ = ≥5X to <10X)
same,pEC50,[2],5.00 to 6.00
NC(=O)C1CN(c2ncc(OCc3c(Cl)cccc3C(F)(F)F)cn2)CCO1 (stereo not shown),CFTR G542X ACTIVITY Fold 10 μM G-418,[1],A′ (A′ = ≥10X)
same,pEC50,[1],5.00 to 6.00
same,CFTR R1162X ACTIVITY Fold 10 μM G-418,[2],A′ (A′ = ≥10X)
same,pEC50,[2],5.00 to 6.00
Cc1cccc(C(F)(F)F)c1COc1cnc(N2CCC(O)(c3ccccn3)CC2)nc1,CFTR G542X ACTIVITY Fold 10 μM G-418,[1],A′ (A′ = ≥10X)
same,pEC50,[1],> 6.00
same,CFTR R1162X ACTIVITY Fold 10 μM G-418,[2],A′ (A′ = ≥10X)
same,pEC50,[2],5.00 to 6.00
NC(=O)N1CCC(c2ncc(OCc3c(Cl)cccc3C(F)(F)F)cn2)CC1,CFTR G542X ACTIVITY Fold 10 μM G-418,[1],A′ (A′ = ≥10X)
same,pEC50,[1],> 6.00
same,CFTR R1162X ACTIVITY Fold 10 μM G-418,[2],A′ (A′ = ≥10X)
same,pEC50,[2],> 6.00
Cc1cccc(C(F)(F)F)c1COc1cnc(N2CC(=O)NC2=O)nc1,CFTR G542X ACTIVITY Fold 10 μM G-418,[1],A′ (A′ = ≥10X)
same,pEC50,[1],5.00 to 6.00
same,CFTR R1162X ACTIVITY Fold 10 μM G-418,[2],A′ (A′ = ≥10X)
same,pEC50,[2],5.00 to 6.00
CC1(C)NC(=O)N(c2ccc(OCc3c(Cl)cccc3C(F)(F)F)cn2)C1=O,CFTR G542X ACTIVITY Fold 10 μM G-418,[1],A′ (A′ = ≥10X)
same,pEC50,[1],5.00 to 6.00
same,CFTR R1162X ACTIVITY Fold 10 μM G-418,[2],B′ (B′ = ≥5X to <10X)
same,pEC50,[2],5.00 to 6.00
"OC[C@@H]1CN(c2ncc(OCc3c(Cl)cccc3Cl)cn2)CCO1 [[(2S)-4-[5-[(2,6-dichlorophenyl)methoxy]pyrimidin-2-yl]morpholin-2-yl]methanol]",CFTR G542X ACTIVITY Fold 10 μM G-418,[1],A′ (A′ = ≥10X)
same,pEC50,[1],> 6.00
same,CFTR R1162X ACTIVITY Fold 10 μM G-418,[2],A′ (A′ = ≥10X)
same,pEC50,[2],> 6.00
"Clc1cccc(Cl)c1COc1cnc(N2CC3(CCCOC3)C2)nc1 [2-[5-[(2,6-dichlorophenyl)methoxy]pyrimidin-2-yl]-6-oxa-2-azaspiro[3.5]nonane]",CFTR G542X ACTIVITY Fold 10 μM G-418,[1],A′ (A′ = ≥10X)
same,pEC50,[1],> 6.00
same,CFTR R1162X ACTIVITY Fold 10 μM G-418,[2],A′ (A′ = ≥10X)
same,pEC50,[2],5.00 to 6.00
COc1ccc(CN2C(=O)CN(c3ccc(OCc4c(C)cccc4C(F)(F)F)cc3)C2=O)cc1,CFTR G542X ACTIVITY Fold 10 μM G-418,[1],B′ (B′ = ≥5X to <10X)
same,pEC50,[1],5.00 to 6.00
same,CFTR R1162X ACTIVITY Fold 10 μM G-418,[2],B′ (B′ = ≥5X to <10X)
same,pEC50,[2],5.00 to 6.00
"O=C1O[C@H](CO)CN1c1ccc(OCc2c(Cl)cccc2Cl)cc1 [(5S)-3-[4-[(2,6-dichlorophenyl)methoxy]phenyl]-5-(hydroxymethyl)oxazolidin-2-one]",CFTR G542X ACTIVITY Fold 10 μM G-418,[1],B′ (B′ = ≥5X to <10X)
same,pEC50,[1],5.00 to 6.00
same,CFTR R1162X ACTIVITY Fold 10 μM G-418,[2],B′ (B′ = ≥5X to <10X)
same,pEC50,[2],5.00 to 6.00
"O=C1OC(CO)CN1c1ccc(OCc2cc(Cl)cc(Cl)c2)cn1 (stereo not shown) [3-[5-[(3,5-dichlorophenyl)methoxy]-2-pyridyl]-5-(hydroxymethyl)oxazolidin-2-one]",CFTR G542X ACTIVITY Fold 10 μM G-418,[1],A′ (A′ = ≥10X)
same,pEC50,[1],5.00 to 6.00
same,CFTR R1162X ACTIVITY Fold 10 μM G-418,[2],A′ (A′ = ≥10X)
same,pEC50,[2],5.00 to 6.00
"CN(CCCCO)c1ncc(OCc2c(Cl)cccc2Cl)cn1 [4-[[5-[(2,6-dichlorophenyl)methoxy]pyrimidin-2-yl]-methyl-amino]butan-1-ol]",CFTR G542X ACTIVITY Fold 10 μM G-418,[1],A′ (A′ = ≥10X)
same,pEC50,[1],> 6.00
same,CFTR R1162X ACTIVITY Fold 10 μM G-418,[2],A′ (A′ = ≥10X)
same,pEC50,[2],> 6.00
